Data from patent US8318780B2 (Intermune, Inc., priority 2009, dated 2012).

Experiments:
[1] = Phase 1 open-label study of the impact of fluvoxamine on the pharmacokinetics of pirfenidone in healthy subjects; conditions: for Ratio of Day 11 AUC0-∞ to Day 1 AUC0-∞, Mean (SD) / Ratio of Day 11 AUC0-∞ to Day 1 AUC0-∞, Median (25th-75th): Day 11 with fluvoxamine vs Day 1 without; for AUC0-∞, Mean (SD) / AUC0-∞, Median (25th-75th): single 801-mg dose of pirfenidone, healthy subjects, n = 51, plasma
Excerpt: Study Design. The study was a Phase 1, open-label, parallel-group study in healthy subjects. Fifty-four subjects were to be enrolled in two groups, consisting of 27 subjects who were smokers (Group 1) and 27 subjects who were nonsmokers (Group 2). […] Each group (smokers and nonsmokers) was to include a minimum of nine females and nine males, and attempts were to be made to enroll equal numbers of each sex in each group.

[2] = system: multiple other CYPs (1A1, 2A6, 2B6, 2C8, 2C9, 2C18, 2C19, 2D6, 2E1, 2J2, 3A4, 3A5, 4A11, and 4F2); test: In vitro metabolism of pirfenidone by CYP isoforms; assay type: in vitro ADME; conditions: each isoform
Excerpt: There are no unique human metabolites.

CYP1A2 = target: T1, CYP1A2 (Homo sapiens, UniProt P05177); test: In vitro metabolism of pirfenidone by CYP isoforms; assay type: in vitro ADME
T1 sequence (P05177 1-516): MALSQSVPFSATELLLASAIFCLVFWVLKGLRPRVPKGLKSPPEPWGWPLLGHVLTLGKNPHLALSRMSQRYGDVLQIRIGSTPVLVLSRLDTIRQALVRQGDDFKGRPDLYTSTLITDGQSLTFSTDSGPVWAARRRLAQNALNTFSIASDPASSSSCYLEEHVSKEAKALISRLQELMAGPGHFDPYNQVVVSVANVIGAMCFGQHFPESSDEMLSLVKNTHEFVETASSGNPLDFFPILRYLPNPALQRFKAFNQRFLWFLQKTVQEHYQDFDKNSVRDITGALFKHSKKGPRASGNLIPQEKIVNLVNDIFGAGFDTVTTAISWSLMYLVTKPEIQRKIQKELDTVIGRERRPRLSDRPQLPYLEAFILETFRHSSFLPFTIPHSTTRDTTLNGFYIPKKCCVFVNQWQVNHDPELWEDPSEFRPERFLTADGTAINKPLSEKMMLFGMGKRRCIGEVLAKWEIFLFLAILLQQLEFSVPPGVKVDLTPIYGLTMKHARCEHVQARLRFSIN

[3] = Study Day 11: Post-Fluvoxamine (fluvoxamine Days 2-11)

Ratio of Cmax on Day 11 to the Cmax on Day 1, mean (95% CI) ([1]; Day 11 post-fluvoxamine vs Day 1 pre-fluvoxamine, all subjects) | Effect of fluvoxamine co-administration on AUC0-∞ (significance, paired t-test) ([1]; Day 11 vs Day 1) | Ratio of Day 11 AUC0-∞ to Day 1 AUC0-∞, Mean (SD) ([1]; Nonsmokers, N 25) | Ratio of Day 11 AUC0-∞ to Day 1 AUC0-∞, Median (25th-75th) ([1]; Nonsmokers, N 25) | Ratio of Day 11 AUC0-∞ to Day 1 AUC0-∞, Mean (SD) ([1]; Smokers, N 26) | Ratio of Day 11 AUC0-∞ to Day 1 AUC0-∞, Median (25th-75th) ([1]; Smokers, N 26) | AUC0-∞, Mean (SD) ([1]; Study Day 1: Pre-Fluvoxamine) | AUC0-∞, Median (25th-75th) ([1]; Study Day 1: Pre-Fluvoxamine) | AUC0-∞, Mean (SD) [1, 3] | AUC0-∞, Median (25th-75th) [1, 3] | Structure (SMILES) | Share of pirfenidone metabolism by each other CYP [2] [%] | Share of pirfenidone metabolism by CYP1A2 (CYP1A2)
0.369 (0.349-0.390) | not a statistically significant effect | 1.05 (0.114) | 1.03 (0.978-1.11) | 1.12 (0.0951) | 1.13 (1.04-1.19) | 29.3 (8.22) mg · hr/L | 26.9 (22.0-33.7) mg · hr/L | 31.7 (8.96) mg · hr/L | 29.4 (25.4-36.5) mg · hr/L | O=C(O)c1ccc(=O)n(-c2ccccc2)c1 [5-Carboxy-Pirfenidone, 5 carboxy-pirfenidone] |  | 
 |  |  |  |  |  |  |  |  |  | Cc1ccc(=O)n(-c2ccccc2)c1 [Pirfenidone, 5-methyl-1-phenyl-2-(1H)-pyridone] | < 13 | approx 48%
